Key:
[1] = tested on: Pu24T (DNA, G4) TGAGGGTGGTGAGGGTGGGGAAGG; experiment: gel mobility shift; conditions: K+ (10 mM potassium phosphate, 50 mM KCl); 20 μM DNA, room temperature
[2] = tested on: Pu24T (DNA, G4) TGAGGGTGGTGAGGGTGGGGAAGG; experiment: 1H NMR titration; conditions: K+ (potassium phosphate); 298 K, 400 μM Piperine, H2O/D2O 9:1; Piperine resonances broaden
[3] = tested on: tel22 (DNA, G4) AGGGTTAGGGTTAGGGTTAGGG; experiment: fluorescence titration of Piperine; conditions: K+ (10 mM potassium phosphate, 50 mM KCl); pH 7.0, 25 °C; two-site saturation fit, Kd1 and Kd2 only in Figure 2 and Table S1
[4] = tested on: tel22 (DNA, G4) AGGGTTAGGGTTAGGGTTAGGG; experiment: time-resolved fluorescence (lifetime); conditions: K+ (10 mM potassium phosphate, 50 mM KCl); 40.0 μM Piperine, D/N 1.0 and 2.0; lifetime increases
[5] = tested on: Pu24T (DNA, G4) TGAGGGTGGTGAGGGTGGGGAAGG; experiment: fluorescence titration of Piperine; conditions: K+ (10 mM potassium phosphate, 50 mM KCl); pH 7.0, 25 °C; two-site saturation fit, Kd1 and Kd2 only in Figure 2 and Table S1
[6] = tested on: Pu24T (DNA, G4) TGAGGGTGGTGAGGGTGGGGAAGG; experiment: UV melting at 295 nm; conditions: K+ (10 mM potassium phosphate, 50 mM KCl); pH 7.0; derived from two Tm (75.0 and 79.0 °C); D/N = 2.0; 78.0 °C at D/N 1.0

binding [1]: yes
binding [2]: yes
Kd1 [3]: 87.5 nM
binding [4]: yes
Kd1 [5]: 2.5 nM
ΔTm [6]: 4.0 °C
SMILES: O=C(/C=C/C=C/c1ccc2c(c1)OCO2)N1CCCCC1
